According to ChEMBL document CHEMBL1132957, “Design of potent dicyclic (4-10/5-8) gonadotropin releasing hormone (GnRH) antagonists” (J Med Chem, 2000):
pKi: −log10 of the molar value. Calls of active or inactive are those of the source. The calls are words filed in the database; no cut-off is given here. Positions of bridges follow the written chain, without caps; N, C: chain ends. Non-standard residues stand in square brackets, D forms with d. Residues, ends and D or L forms follow the SMILES beside them. dPhe(4-Cl) = N[C@H](Cc1ccc(Cl)cc1)C(=O)O; dPhe(4-F) = N[C@H](Cc1ccc(F)cc1)C(=O)O; d2Nal = N[C@H](Cc1ccc2ccccc2c1)C(=O)O; Dap = NC[C@H](N)C(=O)O

Columns and labels:
[1] = molecular target: T1, Gonadotropin-releasing hormone receptor (Rattus norvegicus, UniProt P30969); experiment: Competitive radioligand binding assay, in human HEK293 cells stably transfected with the rat Gonadotropin-releasing hormone receptor; format: cell-based
T1 sequence (P30969 whole entry): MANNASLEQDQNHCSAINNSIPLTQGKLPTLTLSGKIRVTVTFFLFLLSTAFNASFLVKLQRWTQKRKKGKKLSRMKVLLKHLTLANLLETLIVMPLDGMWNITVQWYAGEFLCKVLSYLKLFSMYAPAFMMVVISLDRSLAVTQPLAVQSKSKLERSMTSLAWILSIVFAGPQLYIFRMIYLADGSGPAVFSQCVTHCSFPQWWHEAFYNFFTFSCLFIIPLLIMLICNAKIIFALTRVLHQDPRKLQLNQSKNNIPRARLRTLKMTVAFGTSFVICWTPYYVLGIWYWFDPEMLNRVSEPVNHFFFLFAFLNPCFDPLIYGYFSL

Rattus norvegicus [2] = experiment: Evaluated for the ovulation effects in the rat by administering the drug at the doses (10 ug); 3/3; format: functional, organism-based
Rattus norvegicus [3] = experiment: Evaluated for the ovulation effects in the rat by administering the drug at the doses (250 ug); 0/6; format: functional, organism-based
Rattus norvegicus [4] = experiment: Evaluated for the ovulation effects in the rat by administering the drug at the doses (250 ug); 1/3
Rattus norvegicus [5] = experiment: Evaluated for the ovulation effects in the rat by administering the drug at the doses (10 ug); 4/9; format: functional, organism-based
Rattus norvegicus [6] = experiment: Evaluated for the ovulation effects in the rat by administering the drug at the doses (1.0 ug); 2/11; format: functional, organism-based
Rattus norvegicus [7] = experiment: Evaluated for the ovulation effects in the rat by administering the drug at the doses (0.5 ug); 5/5; format: functional, organism-based
Rattus norvegicus [8] = experiment: Evaluated for the ovulation effects in the rat by administering the drug at the doses (2.5 ug); 1/8; format: functional, organism-based
Rattus norvegicus [9] = experiment: Evaluated for the ovulation effects in the rat by administering the drug at the doses (5.0 ug); 4/7; format: functional, organism-based
Rattus norvegicus [10] = experiment: Evaluated for the ovulation effects in the rat by administering the drug at the doses (2.5 ug); 9/10; format: functional, organism-based
Rattus norvegicus [11] = experiment: Evaluated for the ovulation effects in the rat by administering the drug at the doses (5 ug); 3/20; format: functional, organism-based
Rattus norvegicus [12] = experiment: Evaluated for the ovulation effects in the rat by administering the drug at the doses (10 ug); 0/10; format: functional, organism-based
Rattus norvegicus [13] = experiment: Evaluated for the ovulation effects in the rat by administering the drug at the doses (1.0 ug); 4/4; format: functional, organism-based
Rattus norvegicus [14] = experiment: Evaluated for the ovulation effects in the rat by administering the drug at the doses (2.5 ug); 3/8; format: functional, organism-based
Rattus norvegicus [15] = experiment: Evaluated for the ovulation effects in the rat by administering the drug at the doses (1.0 ug); 11/15; format: functional, organism-based
Rattus norvegicus [16] = experiment: Evaluated for the ovulation effects in the rat by administering the drug at the doses (5 ug); 1/8; format: functional, organism-based
Rattus norvegicus [17] = experiment: Evaluated for the ovulation effects in the rat by administering the drug at the doses (2.5 ug); 3/10; format: functional, organism-based
Rattus norvegicus [18] = experiment: Evaluated for the ovulation effects in the rat by administering the drug at the doses (10 ug); 0/9; format: functional, organism-based
Rattus norvegicus [19] = experiment: Evaluated for the ovulation effects in the rat by administering the drug at the doses (25 ug); 4/4; format: functional, organism-based
Rattus norvegicus [20] = experiment: Evaluated for the ovulation effects in the rat by administering the drug at the doses (25 ug); 2/5; format: functional, organism-based
Rattus norvegicus [21] = experiment: Evaluated for the ovulation effects in the rat by administering the drug at the doses (100 ug); 1/8; format: functional, organism-based
Rattus norvegicus [22] = experiment: Evaluated for the ovulation effects in the rat by administering the drug at the doses (50 ug); 2/8; format: functional, organism-based
Rattus norvegicus [23] = experiment: Evaluated for the ovulation effects in the rat by administering the drug at the doses (5 ug); 2/6; format: functional, organism-based
Rattus norvegicus [24] = experiment: Evaluated for the ovulation effects in the rat by administering the drug at the doses (2.5 ug); 3/3; format: functional, organism-based

CC[C@H](NC(C)=O)C(=O)N[C@@H](Cc1ccc(Cl)cc1)C(=O)N[C@@H](Cc1c[nH]c2ccccc12)C(=O)N[C@@H](CC(=O)O)C(=O)N[C@@H]1CCC(=O)NCCCC[C@@H](C(=O)N2CCC[C@@H]2C(=O)N[C@@H](C)C(N)=O)NC(=O)[C@H](CC(C)C)NC(=O)[C@@H](CCCNC(=N)N)NC1=O (stereo in doubt; 13)
pKi ([1]; hek293): 9.08

CC(=O)N[C@H](Cc1ccc2ccccc2c1)C(=O)N[C@H](Cc1ccc(Cl)cc1)C(=O)N[C@H](Cc1cccnc1)C(=O)N[C@H]1CC(=O)NC[C@@H](C(N)=O)NC(=O)[C@@H]2CCCN2C(=O)[C@@H]2CCNC(=O)[C@H](CCCN=C(N)N)NC(=O)CC[C@H](NC1=O)C(=O)N[C@H](Cc1cccnc1)C(=O)N[C@@H](CC(C)C)C(=O)N2
pKi [1]: 9.23
Activity (Rattus norvegicus [2]): inactive
Activity (Rattus norvegicus [3]): Active
Activity (Rattus norvegicus [4]): Weak activity

CC(=O)N[C@H](Cc1ccc2ccccc2c1)C(=O)N[C@H](Cc1ccc(Cl)cc1)C(=O)N[C@H](Cc1cccnc1)C(=O)N[C@H]1CC(=O)NC[C@@H](C(N)=O)NC(=O)[C@@H]2CCCN2C(=O)[C@@H]2CCNC(=O)CN(C)C(=O)CC[C@H](NC1=O)C(=O)N[C@H](CCCN=C(N)N)C(=O)N[C@@H](CC(C)C)C(=O)N2
Activity (Rattus norvegicus [5]): Weak activity
pKi [1]: 9.70

CC(=O)N[C@H](Cc1ccc2ccccc2c1)C(=O)N[C@H](Cc1ccc(F)cc1)C(=O)N[C@H](Cc1c[nH]c2ccccc12)C(=O)N[C@H]1CC(=O)NC[C@@H](C(N)=O)NC(=O)[C@@H]2CCCN2C(=O)[C@H](CCCN=C(N)N)NC(=O)[C@H](CC(C)C)NC(=O)[C@@H](CCCN=C(N)N)NC(=O)[C@H](Cc2ccc(O)cc2)NC1=O (Ac-[d2Nal][dPhe(4-F)][dW]DY[dR]LRP[Dap]-NH2; lactam 4-10)
pKi ([1]; hek293): 9.44

CC(=O)N[C@H](Cc1ccc2ccccc2c1)C(=O)N[C@H](Cc1ccc(Cl)cc1)C(=O)N[C@H](Cc1cccnc1)C(=O)N[C@H]1CC(=O)NC[C@@H](C(N)=O)NC(=O)[C@@H]2CCCN2C(=O)[C@@H]2CCNC(=O)[C@H](CCCN=C(N)N)NC(=O)CC[C@H](NC1=O)C(=O)N[C@H](CCCN=C(N)N)C(=O)N[C@@H](CC(C)C)C(=O)N2
Activity (Rattus norvegicus [6]): Active
Activity (Rattus norvegicus [7]): inactive
pKi [1]: 9.70
Activity (Rattus norvegicus [8]): Active

CC(=O)N[C@H](Cc1ccc2ccccc2c1)C(=O)N[C@H](Cc1ccc(F)cc1)C(=O)N[C@H](Cc1c[nH]c2ccccc12)C(=O)N[C@H]1CC(=O)NC(C(N)=O)NC(=O)[C@@H]2CCCN2C(=O)[C@H](CCCNC(=N)N)NC(=O)[C@H](CC(C)C)NC(=O)[C@@H](CCCNC(=N)N)NC(=O)[C@H](Cc2ccc(O)cc2)NC1=O (some centres undefined)
pKi ([1]; hek293): 8.89

CC(=O)N[C@H](Cc1ccc2ccccc2c1)C(=O)N[C@H](Cc1ccc(Cl)cc1)C(=O)N[C@H](Cc1c[nH]c2ccccc12)C(=O)N[C@H]1CC(=O)NC[C@@H](C(N)=O)NC(=O)[C@@H]2CCCN2C(=O)[C@@H]2CCCCNC(=O)CC[C@H](NC1=O)C(=O)N[C@H](Cc1ccc3ccccc3c1)C(=O)N[C@@H](CC(C)C)C(=O)N2
pKi [1]: 8.92

CC(=O)N[C@H](Cc1ccc2ccccc2c1)C(=O)N[C@H](Cc1ccc(Cl)cc1)C(=O)N[C@H](Cc1cccnc1)C(=O)N[C@H]1CC(=O)NC[C@@H](C(N)=O)NC(=O)[C@@H]2CCCN2C(=O)[C@@H]2CCNC(=O)CCNC(=O)C[C@H](NC1=O)C(=O)N[C@H](CCCN=C(N)N)C(=O)N[C@@H](CC(C)C)C(=O)N2
Activity (Rattus norvegicus [9]): Weak activity
pKi [1]: 9.43

CC(=O)N[C@H](Cc1ccc2ccccc2c1)C(=O)N[C@H](Cc1ccc(Cl)cc1)C(=O)N[C@H](Cc1c[nH]c2ccccc12)C(=O)N[C@H]1CC(=O)NC[C@@H](C(N)=O)NC(=O)[C@@H]2CCCN2C(=O)[C@@H]2CCCCNC(=O)CC[C@H](NC1=O)C(=O)N[C@H](CCCN=C(N)N)C(=O)N[C@@H](CC(C)C)C(=O)N2 (Ac-[d2Nal][dPhe(4-Cl)][dW]DE[dR]LKP[Dap]-NH2; lactam 4-10, 5-8)
Activity (Rattus norvegicus [10]): inactive
Activity (Rattus norvegicus [11]): Weak activity
Activity (Rattus norvegicus [12]): Active
pKi [1]: 9.49

CC(=O)N[C@H](Cc1ccc2ccccc2c1)C(=O)N[C@H](Cc1ccc(Cl)cc1)C(=O)N[C@H](Cc1cccnc1)C(=O)N[C@H]1CC(=O)NC[C@@H](C(N)=O)NC(=O)[C@@H]2CCCN2C(=O)[C@@H]2CCNC(=O)[C@H](Cc3c[nH]cn3)NC(=O)CC[C@H](NC1=O)C(=O)N[C@H](CCCN=C(N)N)C(=O)N[C@@H](CC(C)C)C(=O)N2
Activity (Rattus norvegicus [13]): inactive
pKi [1]: 10.00
Activity (Rattus norvegicus [14]): Weak activity

CC(=O)N[C@H](Cc1ccc2ccccc2c1)C(=O)N[C@H](Cc1ccc(Cl)cc1)C(=O)N[C@H](Cc1cccnc1)C(=O)N[C@H]1CC(=O)NC[C@@H](C(N)=O)NC(=O)[C@@H]2CCCN2C(=O)[C@@H]2CCNC(=O)[C@H](Cc3ccccc3)NC(=O)CC[C@H](NC1=O)C(=O)N[C@H](CCCN=C(N)N)C(=O)N[C@@H](CC(C)C)C(=O)N2
Activity (Rattus norvegicus [15]): inactive
pKi [1]: 9.64
Activity (Rattus norvegicus [16]): Active
Activity (Rattus norvegicus [17]): Weak activity
Activity (Rattus norvegicus [18]): Active

CC(=O)N[C@H](Cc1ccc2ccccc2c1)C(=O)N[C@H](Cc1ccc(Cl)cc1)C(=O)N[C@H](Cc1cccnc1)C(=O)N[C@H]1CC(=O)NC[C@@H](C(N)=O)NC(=O)[C@@H]2CCCN2C(=O)[C@@H]2CCNC(=O)[C@H](Cc3ccccc3)NC(=O)C[C@H](NC1=O)C(=O)N[C@H](CCCN=C(N)N)C(=O)N[C@@H](CC(C)C)C(=O)N2
pKi [1]: 7.92
Activity (Rattus norvegicus [19]): inactive

CC(=O)N[C@H](Cc1ccc2ccccc2c1)C(=O)N[C@H](Cc1ccc(Cl)cc1)C(=O)N[C@H](Cc1cccnc1)C(=O)N[C@H]1CC(=O)NC[C@@H](C(N)=O)NC(=O)[C@@H]2CCCN2C(=O)[C@@H]2CCCCNC(=O)CC[C@H](NC1=O)C(=O)N[C@H](Cc1ccc3ccccc3c1)C(=O)N[C@@H](CC(C)C)C(=O)N2
Activity (Rattus norvegicus [20]): Weak activity
Activity (Rattus norvegicus [21]): Active
pKi [1]: 8.89
Activity (Rattus norvegicus [22]): Weak activity

CC(=O)N[C@H](Cc1ccc2ccccc2c1)C(=O)N[C@H](Cc1ccc(Cl)cc1)C(=O)N[C@H](Cc1cccnc1)C(=O)N[C@H]1CC(=O)NC[C@@H](C(N)=O)NC(=O)[C@@H]2CCCN2C(=O)[C@@H]2CCCNC(=O)[C@H](Cc3ccccc3)NC(=O)C[C@H](NC1=O)C(=O)N[C@H](CCCN=C(N)N)C(=O)N[C@@H](CC(C)C)C(=O)N2
Activity (Rattus norvegicus [23]): Weak activity
Activity (Rattus norvegicus [24]): inactive
pKi [1]: 9.12

CC(=O)N[C@H](Cc1ccc2ccccc2c1)C(=O)N[C@H](Cc1ccc(F)cc1)C(=O)N[C@H](Cc1c[nH]c2ccccc12)C(=O)N[C@H]1CC(=O)NCC[C@@H](C(N)=O)NC(=O)[C@@H]2CCCN2C(=O)[C@H](CCCNC(=N)N)NC(=O)[C@H](CC(C)C)NC(=O)[C@@H](CCCNC(=N)N)NC(=O)[C@H](Cc2ccc(O)cc2)NC1=O
pKi ([1]; hek293): 8.00

CC(=O)N[C@H](Cc1ccc2ccccc2c1)C(=O)N[C@H](Cc1ccc(F)cc1)C(=O)N[C@H](Cc1c[nH]c2ccccc12)C(=O)N[C@H]1CCC(=O)NC(C(N)=O)NC(=O)[C@@H]2CCCN2C(=O)[C@H](CCCNC(=N)N)NC(=O)[C@H](CC(C)C)NC(=O)[C@@H](CCCNC(=N)N)NC(=O)[C@H](Cc2ccc(O)cc2)NC1=O (some centres undefined)
pKi ([1]; hek293): 8.89
